Assay results: ChEMBL document CHEMBL1201862, “PubChem BioAssay data set” (2004)
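Assay format: 96-well plates, 48-hour exposure. GI50 is the concentration that inhibits growth by half.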 Active and inactive are the calls of the source. Cut-off read from the data, not from the text of the source: active = GI50 up to about 1.1 µM and inactive = higher.

Tests used:
Assay in all cases: growth of human tumour cells (NCI), 48 h
HOP-92 = tested on: HOP-92
HCT-116 = tested on: HCT-116
SF-539 = tested on: SF-539
LOX IMVI = tested on: LOX IMVI
U-251 = tested on: U-251
SF-295 = tested on: SF-295
NCI/ADR-RES = tested on: NCI/ADR-RES
NCI-H522 = tested on: NCI-H522
HL-60 = tested on: HL-60
A498 = tested on: A498
SR = tested on: SR
UO-31 = tested on: UO-31
HCC 2998 = tested on: HCC 2998
SK-MEL-5 = tested on: SK-MEL-5
HOP-62 = tested on: HOP-62
MOLT-4 = tested on: MOLT-4
TK-10 = tested on: TK-10
OVCAR-5 = tested on: OVCAR-5
NCI-H226 = tested on: NCI-H226
NCI-H23 = tested on: NCI-H23

Measured: GI50

N#CC1(Nc2ccc(-c3ccc(NC4(C#N)CCCC4)cc3)cc2)CCCC1
inactive: HOP-92 39.3 µM | HCT-116 > 100 µM | SF-539 11.8 µM | LOX IMVI > 100 µM | U-251 > 100 µM | SF-295 > 100 µM | NCI/ADR-RES > 100 µM | NCI-H522 > 100 µM | HL-60 > 100 µM | A498 > 100 µM | SR > 100 µM | UO-31 > 100 µM | HCC 2998 > 100 µM | SK-MEL-5 59 µM | HOP-62 > 100 µM | MOLT-4 86.1 µM | TK-10 > 100 µM | OVCAR-5 > 100 µM | NCI-H226 > 100 µM | NCI-H23 > 100 µM

Nc1n[nH]c(Nc2ccc(Cl)cc2)c1P(=O)(c1ccccc1)c1ccccc1
inactive: HOP-92 20.8 µM | SF-539 21.8 µM | LOX IMVI 31.6 µM | U-251 30.3 µM | SF-295 18.6 µM | NCI/ADR-RES 20.7 µM | NCI-H522 20.2 µM | HL-60 25.8 µM | A498 37.8 µM | SR 53.1 µM | UO-31 29.4 µM | HCC 2998 24.7 µM | SK-MEL-5 20.9 µM | HOP-62 20.2 µM | MOLT-4 27.2 µM | TK-10 30.1 µM | OVCAR-5 18.8 µM | NCI-H226 24.3 µM | NCI-H23 30.4 µM

CC#CC#C/C(=C/C=CC(=O)OC)SC
inactive: HOP-92 > 100 µM | HCT-116 > 100 µM | SF-539 > 100 µM | LOX IMVI > 100 µM | U-251 > 100 µM | SF-295 > 100 µM | NCI/ADR-RES > 100 µM | NCI-H522 > 100 µM | HL-60 > 100 µM | A498 > 100 µM | SR > 10 µM | HCC 2998 > 100 µM | SK-MEL-5 > 100 µM | MOLT-4 > 100 µM | TK-10 > 100 µM | OVCAR-5 > 100 µM | NCI-H226 > 100 µM

Nc1ccccc1SCc1csc(-c2ccc(Cl)cc2)n1
inactive: HOP-92 21.9 µM | HCT-116 29 µM | SF-539 22.2 µM | LOX IMVI 16.9 µM | U-251 20.3 µM | SF-295 41.2 µM | NCI/ADR-RES 21.5 µM | NCI-H522 10.7 µM | HL-60 3.52 µM | A498 23.3 µM | SR 6.61 µM | UO-31 15.8 µM | HCC 2998 16.4 µM | SK-MEL-5 14.8 µM | HOP-62 30.3 µM | MOLT-4 4.39 µM | TK-10 38.1 µM | OVCAR-5 39.1 µM | NCI-H226 20.7 µM | NCI-H23 24.7 µM
